Key:
Format in all cases: cell-based
[1] = system: metabotropic glutamate receptors; assay: Inhibition of kainate responses by stimulation of metabotropic glutamate receptors in oocytes injected with rat brain poly A+ mRNA; settings: about 500 μM tACPD, about 100 μM kainate, repetitive applications, FIG. 14
Experimental: Poly A^+ mRNA are extracted from brain tissue and neuronal cell culture using a magnetic separation protocol based on the Dynabeads Oligo (dT)25 kit (Dynal, Olso, Norway). Briefly, the protocol utilized magnetic beads that have an attached poly-T moiety which can bind poly A^+ mRNA for separation. Tissue is homogenized, cells are disrupted, and the lysate is added to an aliquot of Dynabeads. Magnetic separation efficiently yields mRNA that is suitable for direct injection into oocytes. Batches of about 20 to about 30 select oocytes are injected with about 50 to about 100 ng of neuronal poly A^+ mRNA. Alternatively, oocytes may be injected with about […] of RNA prepared from in vitro transcription of cDNA clones. In either case, injection may be performed using a Drummond electronic microinjector. Oocytes are then maintained at about 18° C. to about 19° C. for about 2 to about 4 days to allow protein expression prior to electrophysiological recordings. After incubation, electrophysiological analysis of expressed receptors and ion channels may be performed using a system according to the present invention.

[2] = target: T1, recombinant GluR6 kainate receptors (Homo sapiens, UniProt Q13002); assay: Effects of steroids on recombinant GluR6 kainate receptors in oocytes; settings: recombinant GluR6, Vh about −100 mV, FIG. 11
T1 construct: expressed in transfected cells; host or cells: Xenopus laevis oocytes injected with in vitro transcribed GluR6 cRNA
Experimental: All measurements were performed under Vh of about −100 mV.
About 3 days to about 5 days after RNA injection, electrophysiological recordings were carried out using an Axoclamp-2A voltage clamp amplifier (Axon Instruments, Inc.). Experiments were performed in two-electrode voltage clamp mode using two intracellular microelectrodes of about 1 to about 3 mega-ohm resistance filled with a solution of about 3M KCl.
Oocytes were usually clamped at a holding potential of about −60 mV and stepped to about −100 mV during agent application.

[3] = system: kainate responses in oocytes injected with rat brain poly A+ mRNA; assay: Effect of pregnenolone sulfate on kainate dose-response curve in oocytes injected with rat brain poly A+ mRNA; settings: with and without pregnenolone sulfate, Vh about −100 mV, FIG. 9
Experimental: Poly A^+ mRNA are extracted from brain tissue and neuronal cell culture using a magnetic separation protocol based on the Dynabeads Oligo (dT)25 kit (Dynal, Olso, Norway). Briefly, the protocol utilized magnetic beads that have an attached poly-T moiety which can bind poly A^+ mRNA for separation. Tissue is homogenized, cells are disrupted, and the lysate is added to an aliquot of Dynabeads. Magnetic separation efficiently yields mRNA that is suitable for direct injection into oocytes. Batches of about 20 to about 30 select oocytes are injected with about 50 to about 100 ng of neuronal poly A^+ mRNA. Alternatively, oocytes may be injected with about 30 μl to about 80 μl of RNA prepared from in vitro transcription of cDNA clones. In either case, injection may be performed using a Drummond electronic microinjector. Oocytes are then maintained at about 18° C. to about 19° C. for about 2 to about 4 days to allow protein expression prior to electrophysiological recordings. After incubation, electrophysiological analysis of expressed receptors and ion channels may be performed using a system according to the present invention.
About 3 days to about 5 days after RNA injection, electrophysiological recordings were carried out using an Axoclamp-2A voltage clamp amplifier (Axon Instruments, Inc.). […]

T1 sequence (Q13002 32-908): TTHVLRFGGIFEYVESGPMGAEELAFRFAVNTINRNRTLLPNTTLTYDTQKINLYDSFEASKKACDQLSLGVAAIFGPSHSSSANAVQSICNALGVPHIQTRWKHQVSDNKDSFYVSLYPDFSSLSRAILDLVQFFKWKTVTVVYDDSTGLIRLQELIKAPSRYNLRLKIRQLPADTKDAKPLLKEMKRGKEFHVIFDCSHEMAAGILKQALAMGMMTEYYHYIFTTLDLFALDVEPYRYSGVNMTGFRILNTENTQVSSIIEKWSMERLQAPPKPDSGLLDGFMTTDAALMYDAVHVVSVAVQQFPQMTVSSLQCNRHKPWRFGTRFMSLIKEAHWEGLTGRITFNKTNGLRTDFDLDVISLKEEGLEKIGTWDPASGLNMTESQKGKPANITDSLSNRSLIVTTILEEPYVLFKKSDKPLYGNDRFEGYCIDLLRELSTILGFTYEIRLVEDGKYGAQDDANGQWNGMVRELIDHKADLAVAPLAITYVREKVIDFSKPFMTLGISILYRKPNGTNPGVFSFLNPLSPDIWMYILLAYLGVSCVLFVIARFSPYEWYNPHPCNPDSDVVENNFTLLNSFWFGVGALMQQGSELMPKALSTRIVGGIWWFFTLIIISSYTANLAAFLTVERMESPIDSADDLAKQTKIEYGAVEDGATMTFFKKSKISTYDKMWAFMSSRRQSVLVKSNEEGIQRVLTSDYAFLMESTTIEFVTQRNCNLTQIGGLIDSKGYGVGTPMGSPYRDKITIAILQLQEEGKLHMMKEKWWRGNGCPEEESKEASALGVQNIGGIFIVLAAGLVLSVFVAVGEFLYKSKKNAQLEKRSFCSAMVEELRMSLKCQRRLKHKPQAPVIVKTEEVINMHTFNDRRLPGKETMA

| Molecule | Effect on responses to kainate [1] | Effect on maximal response to kainate [2] | Effect on Emax of kainate dose-response curve [3] |
| --- | --- | --- | --- |
| N[C@]1(C(=O)O)CC[C@H](C(=O)O)C1 [tACPD] | can inhibit responses to kainate | – | – |
| pregnenolone sulfate | – | decrease the maximal response to kainate | decrease in Emax |

From patent US6762036B2, “Cellular physiology workstations for automated data acquisition and perfusion control” (Trustees of Boston University, priority 1995, dated 2004)
